From the NIST ThermoML archive (doi:10.1016/j.jct.2009.11.011)
Values joined by “and” are separate entries in the source; they are usually repeats but may differ in a detail not shown here. Equal values may be shown once. Numbers after ± are expanded uncertainties.

Assays:
[1] = molar heat capacity at saturation pressure
[2] = Molar enthalpy of transition or fusion; conditions: Crystal; Adiabatic calorimetry
[3] = for vapor or sublimation pressure: Liquid, Ebulliometric method (Recirculating still)

c1cnc2c(c1)ccc1cccnc12 [1,10-phenanthroline]
molar heat capacity [J/K/mol], [1], Vacuum adiabatic calorimetry
Conditions | Crystal | Liquid
5 K | 1.26 ± 0.02 | –
5.659 K | 1.78 ± 0.03 | –
6.394 K | 2.35 ± 0.03 | –
7.405 K | 3.18 ± 0.04 | –
8.419 K | 4.13 ± 0.05 | –
9.46 K | 5.19 ± 0.06 | –
10 K | 5.74 ± 0.06 | –
10.55 K | 6.31 ± 0.06 | –
11.75 K | 7.62 ± 0.07 | –
13.08 K | 9.121 ± 0.07 | –
14.53 K | 10.68 ± 0.083 | –
16.13 K | 12.55 ± 0.091 | –
17.88 K | 14.51 ± 0.1 | –
19.8 K | 16.6 ± 0.11 | –
20 K | 16.82 ± 0.11 | –
21.93 K | 18.87 ± 0.11 | –
24.3 K | 21.41 ± 0.11 | –
26.92 K | 24.1 ± 0.11 | –
29.85 K | 26.95 ± 0.11 | –
30 K | 27.1 ± 0.1 | –
33.1 K | 29.99 ± 0.1 | –
36.75 K | 33.23 ± 0.11 | –
40 K | 35.93 ± 0.12 | –
40.82 K | 36.58 ± 0.12 | –
45.34 K | 40.14 ± 0.12 | –
50 K | 43.64 ± 0.12 | –
50.36 K | 43.96 ± 0.12 | –
55.93 K | 47.63 ± 0.13 | –
57.69 K | 48.9 ± 0.14 | –
60 K | 50.34 ± 0.14 | –
60.42 K | 50.6 ± 0.14 | –
63.28 K | 52.36 ± 0.14 | –
66.47 K | 54.41 ± 0.15 | –
69.78 K | 56.39 ± 0.15 | –
70 K | 56.51 ± 0.15 | –
73.24 K | 58.45 ± 0.16 | –
76.94 K | 60.52 ± 0.16 | –
80 K | 62.29 ± 0.17 | –
80.6 K | 62.63 ± 0.17 | –
84.91 K | 65 ± 0.17 | –
88.8 K | 67.21 ± 0.17 | –
90 K | 67.87 ± 0.27 | –
97.84 K | 72.09 ± 0.27 | –
100 K | 73.23 ± 0.27 | –
100.26 K | 73.38 ± 0.27 | –
109.98 K | 78.65 ± 0.28 | –
119.96 K | 84.22 ± 0.28 | –
120 K | 84.24 ± 0.28 | –
131.01 K | 90.44 ± 0.29 | –
140 K | 95.58 ± 0.3 | –
143.07 K | 97.35 ± 0.3 | –
155.1 K | 104.48 ± 0.31 | –
160 K | 107.41 ± 0.31 | –
167.1 K | 111.7 ± 0.32 | –
179.08 K | 119.1 ± 0.32 | –
180 K | 119.68 ± 0.32 | –
191.08 K | 126.69 ± 0.32 | –
200 K | 132.42 ± 0.33 | –
203.14 K | 134.46 ± 0.33 | –
215.25 K | 142.45 ± 0.34 | –
220 K | 145.57 ± 0.35 | –
227.38 K | 150.47 ± 0.35 | –
239.55 K | 158.67 ± 0.36 | –
240 K | 158.97 ± 0.36 | –
251.77 K | 167.01 ± 0.37 | –
260 K | 172.69 ± 0.37 | –
264.02 K | 175.49 ± 0.37 | –
276.3 K | 183.86 ± 0.38 | –
280 K | 186.36 ± 0.39 | –
288.6 K | 192.35 ± 0.39 | –
289.46 K | 192.8 ± 0.39 | –
298.15 K | 198.74 ± 0.4 | –
300 K | 200 ± 0.4 | –
300.24 K | 200.19 ± 0.4 | –
312.29 K | 208.49 ± 0.41 | –
320 K | 213.76 ± 0.42 | –
324.53 K | 216.87 ± 0.42 | –
336.89 K | 225.26 ± 0.42 | –
336.98 K | 225.23 ± 0.42 | –
340 K | 227.24 ± 0.42 | –
348.97 K | 233.42 ± 0.43 | –
349.32 K | 233.65 ± 0.43 | –
360 K | 240.63 ± 0.44 | –
361.05 K | 241.49 ± 0.44 | –
373.19 K | 249.78 ± 0.45 | –
375.19 K | – | 297.88 ± 0.5
380 K | 253.68 ± 0.46 | 300.22 ± 0.5
381.3 K | 256.64 ± 0.46 | –
382.84 K | – | 301.57 ± 0.5
383.75 K | 260.04 ± 0.46 | –
391.52 K | – | 305.71 ± 0.51
391.71 K | 261.46 ± 0.47 | 305.81 ± 0.51
397.93 K | – | 308.79 ± 0.51
400 K | – | 309.76 ± 0.51
400.3 K | – | 309.93 ± 0.51
402.69 K | – | 311.03 ± 0.51
404.9 K | – | 312.06 ± 0.52
413.55 K | – | 316.13 ± 0.52
416.42 K | – | 317.49 ± 0.52
420 K | – | 319.14 ± 0.52
429.03 K | – | 323.3 ± 0.52
439.59 K | – | 328.19 ± 0.53
440 K | – | 328.39 ± 0.53

Conditions | Triple point temperature, Crystal [K] | molar heat capacity, 460 K [J/K/mol] | molar heat capacity, 480 K [J/K/mol] | molar heat capacity, 500 K [J/K/mol] | molar heat capacity, 520 K [J/K/mol] | molar heat capacity, 540 K [J/K/mol] | molar heat capacity, 560 K [J/K/mol] | molar heat capacity, 580 K [J/K/mol] | molar heat capacity, 600 K [J/K/mol]
[1], Liquid | – | 337.52 ± 3.4 | 346.29 ± 3.5 | 355 ± 3.6 | 363.5 ± 3.7 | 371.9 ± 3.7 | 380.1 ± 3.8 | 388.2 ± 3.9 | 396 ± 4
[3], Adiabatic calorimetry | 391.71 ± 0.05 | – | – | – | – | – | – | – | –

Conditions | Molar enthalpy of transition or fusion [kcal/mol]
[2] | 3.705 ± 0.00406

[3]
Conditions | vapor or sublimation pressure
523.28 K | 2 ± 0.01 kPa and 2.001 ± 0.01 kPa
531.9 K | 2.668 ± 0.011 kPa
554.04 K | 5.325 ± 0.011 kPa
568.22 K | 8.008 ± 0.012 kPa
578.69 K | 10.65 ± 0.012 kPa
587.24 K | 13.33 ± 0.013 kPa
595.98 K | 16.64 ± 0.014 kPa
603.36 K | 19.95 ± 0.015 kPa
